Like-named read-outs stand apart in the source and are kept apart here.
Experiments:
MAO-A = target: T1, MAO-A (Homo sapiens, UniProt P21397); assay: Receptor/kinase panel: MAO-A; format: biochemical; conditions: off-target DAT/MAO-A at 10 μM vs on-target potency
T1 sequence (P21397 1-527): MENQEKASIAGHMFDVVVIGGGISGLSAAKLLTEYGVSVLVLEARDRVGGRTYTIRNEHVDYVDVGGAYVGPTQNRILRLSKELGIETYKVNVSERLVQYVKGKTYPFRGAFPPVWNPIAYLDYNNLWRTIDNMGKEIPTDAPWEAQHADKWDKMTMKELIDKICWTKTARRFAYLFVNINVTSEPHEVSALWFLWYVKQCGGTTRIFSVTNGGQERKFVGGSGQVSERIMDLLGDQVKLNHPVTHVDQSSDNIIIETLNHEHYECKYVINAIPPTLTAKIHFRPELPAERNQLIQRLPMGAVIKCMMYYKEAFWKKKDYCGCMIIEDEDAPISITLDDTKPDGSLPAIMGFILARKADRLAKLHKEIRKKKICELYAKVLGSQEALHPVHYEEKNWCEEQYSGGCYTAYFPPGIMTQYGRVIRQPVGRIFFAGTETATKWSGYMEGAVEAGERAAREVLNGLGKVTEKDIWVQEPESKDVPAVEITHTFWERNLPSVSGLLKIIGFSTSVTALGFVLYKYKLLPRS

[1] = Mouse PK, plasma and brain levels after single IV dose; format: in vivo; conditions: single 10 mg/kg IV
[2] = Stability in mouse liver microsomes; format: in vitro ADME
[3] = Stability in human liver microsomes; format: in vitro ADME
[4] = Parallel artificial membrane permeability assay (PAMPA); format: in vitro ADME
P-gp = P-gp (Homo sapiens, UniProt P08183); assay: P-gp study, bidirectional permeability in NIH MDR1 cells; format: in vitro ADME
[5] = GF120918 −, read-out: Mean Recovery % A to B

Sequence of P-gp (P08183 whole entry): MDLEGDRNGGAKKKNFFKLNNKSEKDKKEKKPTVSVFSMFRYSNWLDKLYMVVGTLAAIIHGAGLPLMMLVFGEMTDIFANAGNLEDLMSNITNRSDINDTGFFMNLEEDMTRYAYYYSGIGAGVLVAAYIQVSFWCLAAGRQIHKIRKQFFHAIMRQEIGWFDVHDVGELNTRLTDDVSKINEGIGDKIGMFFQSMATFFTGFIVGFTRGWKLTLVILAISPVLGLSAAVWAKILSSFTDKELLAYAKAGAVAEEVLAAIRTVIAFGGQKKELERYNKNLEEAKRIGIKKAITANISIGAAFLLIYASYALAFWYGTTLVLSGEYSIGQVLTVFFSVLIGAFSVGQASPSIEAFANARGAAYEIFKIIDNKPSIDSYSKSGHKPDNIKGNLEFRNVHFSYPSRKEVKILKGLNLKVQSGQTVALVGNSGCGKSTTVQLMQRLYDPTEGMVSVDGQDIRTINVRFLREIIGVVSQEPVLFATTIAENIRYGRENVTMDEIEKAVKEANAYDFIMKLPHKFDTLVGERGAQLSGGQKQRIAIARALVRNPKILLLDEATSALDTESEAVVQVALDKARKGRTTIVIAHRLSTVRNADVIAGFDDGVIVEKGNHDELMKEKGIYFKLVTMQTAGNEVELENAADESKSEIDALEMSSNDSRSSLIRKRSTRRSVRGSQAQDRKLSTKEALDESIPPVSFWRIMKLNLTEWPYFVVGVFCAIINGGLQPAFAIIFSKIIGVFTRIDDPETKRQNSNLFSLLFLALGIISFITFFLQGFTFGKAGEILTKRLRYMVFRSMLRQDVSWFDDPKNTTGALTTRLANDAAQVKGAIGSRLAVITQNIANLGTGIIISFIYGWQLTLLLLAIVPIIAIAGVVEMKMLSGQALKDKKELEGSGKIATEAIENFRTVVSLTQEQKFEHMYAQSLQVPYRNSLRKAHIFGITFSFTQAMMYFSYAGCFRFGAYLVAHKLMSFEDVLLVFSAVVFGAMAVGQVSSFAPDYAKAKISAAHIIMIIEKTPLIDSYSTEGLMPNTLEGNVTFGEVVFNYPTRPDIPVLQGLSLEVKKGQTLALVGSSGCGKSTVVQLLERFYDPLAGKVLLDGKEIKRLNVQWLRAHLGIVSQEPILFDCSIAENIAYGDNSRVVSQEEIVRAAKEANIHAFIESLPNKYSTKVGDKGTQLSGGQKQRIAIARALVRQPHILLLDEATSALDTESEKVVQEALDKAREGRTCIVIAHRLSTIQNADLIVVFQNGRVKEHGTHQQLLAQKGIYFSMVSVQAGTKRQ

SMILES | t1/2 MLM [2] [h] | t1/2 HLM [3] [h] | recovery (P-gp; [5]) [%] | also measured
O=C(CCCCCc1ccccc1)N[C@H]1CC[C@H](O)CC1 [Compound 15B, N-(trans-4-Hydroxycyclohexyl)-6-phenylhexanamide] | – | – | – | safety window compared to on-target efficacy (MAO-A): 1,000 fold; Vdss (volume of distribution at steady state) [1]: 0.35 L/kg; time therapeutic brain levels (>30 ng/g) were maintained [1]: more than 2 hours
O=C(CCCCOc1ccccc1)N[C@H]1CC[C@H](O)CC1 [Compound 21] | >2.42 | >2.42 | – | –
O=C(CCCOCc1ccccc1)N[C@H]1CC[C@H](O)CC1 [Compound 22] | >2.42 | >2.42 | – | –
O=C(CCOCCc1ccccc1)N[C@H]1CC[C@H](O)CC1 [Compound 23] | >2.42 | >2.42 | – | –
O=C(COCCCc1ccccc1)N[C@H]1CC[C@H](O)CC1 [Compound 24] | >2.42 | >2.42 | – | –
O=C(N[C@H]1CC[C@H](O)CC1)OCCCCc1ccccc1 [Compound 25] | 0.815 | 2.188 | – | PAMPA compared to parent trans-N-(4-hydroxycyclohexyl)-6-phenylhexanamide [4]: 10 fold
C[C@H]1O[C@@H](O[C@H]2[C@@H](O)C[C@H](O[C@H]3[C@@H](O)C[C@H](O[C@H]4CC[C@@]5(C)[C@H](CC[C@@H]6[C@@H]5C[C@@H](O)[C@]5(C)[C@@H](C7=CC(=O)OC7)CC[C@]65O)C4)O[C@@H]3C)O[C@@H]2C)C[C@H](O)[C@@H]1O [Digoxin] | – | – | 98.9 | recovery (P-gp; GF120918 −, read-out: Mean Recovery % B to A): 103%; Papp B→A (P-gp; MDCK-MDR1, with GF120918 (concentration not stated), GF120918 +): 2.05 ×10⁻⁶ cm/s; Papp B→A (P-gp; MDCK-MDR1, GF120918 −): 13.4 ×10⁻⁶ cm/s; recovery (P-gp; with GF120918 (concentration not stated), GF120918 +, read-out: Mean Recovery % B to A): 99.3%
COCCc1ccc(OCC(O)CNC(C)C)cc1 (centres unmarked) [Metoprolol] | – | – | 105 | Papp A→B (P-gp; MDCK-MDR1, GF120918 −): 21.2 ×10⁻⁶ cm/s
CC(C)(C)NCC(O)COc1cccc2c1CC(O)C(O)C2 (centres unmarked) [Nadolol] | – | – | 97.9 | Papp A→B (P-gp; MDCK-MDR1, GF120918 −): 0.26 ×10⁻⁶ cm/s

— US11083699B2, “Trans-4-hydroxycyclohexyl phenyl amide mitofusin activators and methods of use thereof” (MITOCHONDRIA EMOTION, INC., priority 2019, dated 2021)
